Where a name gives a salt, the structure may show the parent alone.
Molecular target: T1, canine TRPM8 (Canis lupus familiaris, UniProt Q1A7N1)
T1 construct: expressed in transfected cells
Experiment: In vitro canine TRPM8 functional assay (icilin-induced intracellular Ca2+, FLIPR/FDSS);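 further: intracellular Ca2+ tracked with a Ca2+-sensitive fluorescent dye, compound applied 5 min before icilin was added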
Format: cell-based
Settings: HEK293 cells stably expressing canine TRPM8; for inhibition at 0.2 µM: 0.200 μM compound, icilin challenge (~80% maximal response), read-out: % Inh. @ 0.200 μM; for IC50: icilin challenge, eight-point dose-response

T1 sequence (Q1A7N1 1-1104): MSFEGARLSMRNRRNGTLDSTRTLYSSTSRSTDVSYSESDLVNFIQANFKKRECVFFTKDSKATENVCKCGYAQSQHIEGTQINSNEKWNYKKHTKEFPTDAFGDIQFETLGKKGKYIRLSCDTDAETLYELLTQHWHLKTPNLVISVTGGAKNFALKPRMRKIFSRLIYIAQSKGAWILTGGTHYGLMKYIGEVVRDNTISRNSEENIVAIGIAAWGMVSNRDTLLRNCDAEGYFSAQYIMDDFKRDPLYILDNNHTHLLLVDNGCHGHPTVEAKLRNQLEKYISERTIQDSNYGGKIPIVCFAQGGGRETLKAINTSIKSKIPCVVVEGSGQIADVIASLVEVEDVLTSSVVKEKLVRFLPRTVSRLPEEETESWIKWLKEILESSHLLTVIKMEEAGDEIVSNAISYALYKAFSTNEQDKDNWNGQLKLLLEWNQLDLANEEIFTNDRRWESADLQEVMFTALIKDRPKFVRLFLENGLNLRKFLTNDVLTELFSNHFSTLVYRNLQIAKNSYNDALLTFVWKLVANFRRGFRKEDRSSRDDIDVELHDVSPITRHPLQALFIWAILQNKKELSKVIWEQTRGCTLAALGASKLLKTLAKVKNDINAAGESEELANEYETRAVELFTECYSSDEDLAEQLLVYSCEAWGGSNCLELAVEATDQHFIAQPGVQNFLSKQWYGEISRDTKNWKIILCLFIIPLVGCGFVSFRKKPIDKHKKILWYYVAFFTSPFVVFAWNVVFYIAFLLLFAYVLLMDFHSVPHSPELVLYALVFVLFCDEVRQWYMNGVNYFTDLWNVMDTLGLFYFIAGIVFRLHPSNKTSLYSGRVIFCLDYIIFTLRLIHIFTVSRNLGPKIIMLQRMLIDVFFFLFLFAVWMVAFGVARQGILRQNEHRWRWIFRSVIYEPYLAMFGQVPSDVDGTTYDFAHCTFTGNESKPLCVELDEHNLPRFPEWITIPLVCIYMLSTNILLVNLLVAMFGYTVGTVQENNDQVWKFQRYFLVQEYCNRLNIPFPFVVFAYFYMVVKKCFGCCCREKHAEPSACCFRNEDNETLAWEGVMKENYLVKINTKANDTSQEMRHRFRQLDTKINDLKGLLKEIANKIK

FC(F)(F)Oc1ccccc1-c1ccc2nc(C3=NC4(CCCCC4)CO3)[nH]c2c1 [Cpd 2, 2-[5-(2-Trifluoromethoxy-phenyl)-1H-benzimidazol-2-yl]-3-oxa-1-aza-spiro[4.5]dec-1-ene]
inhibition at 0.2 µM: 106%
IC50: 7 nM

FC(F)(F)Oc1ccccc1-c1ccc2[nH]c(C3=NCC4(CCCCC4)O3)nc2c1 [Cpd 3, 2-[5-(2-Trifluoromethoxy-phenyl)-1H-benzimidazol-2-yl]-1-oxa-3-aza-spiro[4.5]dec-2-ene]
inhibition at 0.2 µM: 60%

FC(F)(F)c1ccccc1-c1ccc2[nH]c(C3=NCC4(CCCCC4)O3)nc2c1 [Cpd 4, 2-[5-(2-Trifluoromethyl-phenyl)-1H-benzimidazol-2-yl]-1-oxa-3-aza-spiro[4.5]dec-2-ene]
inhibition at 0.2 µM: 84%

FC(F)(F)c1ccccc1-c1ccc2[nH]c(C3=NOC4(CCOCC4)C3)nc2c1 [Cpd 9, 3-[5-(2-Trifluoromethylphenyl)-1H-benzimidazol-2-yl]-1,8-dioxa-2-aza-spiro[4.5]dec-2-ene]
inhibition at 0.2 µM: 101%

FC(F)(F)Cc1ccccc1-c1ccc2[nH]c(C3=NOC4(CCCCC4)C3)nc2c1 [Cpd 11, 3-{5-[2-(2,2,2-Trifluoroethyl)-phenyl]-1H-benzimidazol-2-yl}-1-oxa-2-aza-spiro[4.5]dec-2-ene]
inhibition at 0.2 µM: 102%
IC50: 1.5 nM

Fc1cc(-c2ccccc2C(F)(F)F)cc2nc(C3=NOC4(CCCCC4)C3)[nH]c12 [Cpd 14, 3-[7-Fluoro-5-(2-trifluoromethyl-phenyl)-1H-benzimidazol-2-yl]-1-oxa-2-aza-spiro[4.5]dec-2-ene hydrochloride]
inhibition at 0.2 µM: 102%

CC1C(c2nc3cc(-c4ccccc4C(F)(F)F)ccc3[nH]2)=NOC12CCCCC2 (stereo not shown) [Cpd 15, 4-Methyl-3-[5-(2-trifluoromethyl-phenyl)-1H-benzimidazol-2-yl]-1-oxa-2-aza-spiro[4.5]dec-2-ene hydrochloride]
inhibition at 0.2 µM: 102%
IC50: 3.9 nM

Cc1cc(-c2ccccc2OC(F)F)cc2nc(C3=NOC4(CCCCC4)C3)[nH]c12 [Cpd 20, 3-[5-(2-Difluoromethoxyphenyl)-7-methyl-1H-benzimidazol-2-yl]-1-oxa-2-aza-spiro[4.5]dec-2-ene hydrochloride]
inhibition at 0.2 µM: 103%
IC50: 1.8 nM

OCCCc1cc(-c2ccccc2C(F)(F)F)cc2nc(C3=NOC4(CCCCC4)C3)[nH]c12 [Cpd 22, 3-[2-(1-Oxa-2-aza-spiro[4.5]dec-2-en-3-yl)-6-(2-trifluoromethylphenyl)-3H-benzimidazol-4-yl]-propan-1-ol hydrochloride]
inhibition at 0.2 µM: 103%

Fc1ccccc1-c1ccc2[nH]c(C3=NOC4(CCCCC4)C3)nc2c1 [Cpd 23, 3-[5-(2-Fluoro-phenyl)-1H-benzimidazol-2-yl]-1-oxa-2-aza-spiro[4.5]dec-2-ene trifluoroacetic acid salt]
inhibition at 0.2 µM: 103%

Cc1c(-c2ccccc2C(F)(F)F)ccc2[nH]c(C3=NOC4(CCCCC4)C3)nc12 [Cpd 24, 3-[4-Methyl-5-(2-trifluoromethyl-phenyl)-1H-benzimidazol-2-yl]-1-oxa-2-aza-spiro[4.5]dec-2-ene hydrochloride]
inhibition at 0.2 µM: 103%
IC50: 5.6 nM

OC/C=C\c1cc(-c2ccccc2C(F)(F)F)cc2nc(C3=NOC4(CCCCC4)C3)[nH]c12 [Cpd 25, 3-[2-(1-Oxa-2-aza-spiro[4.5]dec-2-en-3-yl)-6-(2-trifluoromethylphenyl)-3H-benzimidazol-4-yl]-prop-2-en-1-ol]
inhibition at 0.2 µM: 100%
IC50: 0.8 nM

Fc1cccc(F)c1-c1ccc2[nH]c(C3=NOC4(CCCCC4)C3)nc2c1 [Cpd 26, 3-[5-(2,6-Difluoro-phenyl)-1H-benzimidazol-2-yl]-1-oxa-2-aza-spiro[4.5]dec-2-ene trifluoroacetic acid salt]
inhibition at 0.2 µM: 100%

FC(F)(F)c1ccccc1-c1ccc2[nH]c(C3=NC4(CCOCC4)CO3)nc2c1 [Cpd 29, 2-[5-(2-Trifluoromethyl-phenyl)-1H-benzimidazol-2-yl]-3,8-dioxa-1-aza-spiro[4.5]dec-1-ene]
inhibition at 0.2 µM: 71%
IC50: 100 nM

Fc1ccccc1-c1ccc2[nH]c(C3=NOC4(CCOCC4)C3)nc2c1 [Cpd 31, 3-[5-(2-Fluoro-phenyl)-1H-benzimidazol-2-yl]-1,8-dioxa-2-aza-spiro[4.5]dec-2-ene hydrochloride]
inhibition at 0.2 µM: 99%
IC50: 13.4 nM

Cc1cc(-c2ccccc2C(F)(F)F)cc2nc(C3=NOC4(CCOCC4)C3)[nH]c12 [Cpd 32, 3-[7-Methyl-5-(2-trifluoromethyl-phenyl)-1H-benzimidazol-2-yl]-1,8-dioxa-2-aza-spiro[4.5]dec-2-ene hydrochloride]
inhibition at 0.2 µM: 100%
IC50: 4.9 nM

FC(F)(F)c1ccccc1-c1cc(Br)c2[nH]c(C3=NOC4(CCOCC4)C3)nc2c1 [Cpd 33, 3-[7-Bromo-5-(2-trifluoromethyl-phenyl)-1H-benzimidazol-2-yl]-1,8-dioxa-2-aza-spiro[4.5]dec-2-ene hydrochloride]
inhibition at 0.2 µM: 100%
IC50: 1.7 nM

N#Cc1cc(-c2ccccc2C(F)(F)F)cc2nc(C3=NOC4(CCOCC4)C3)[nH]c12 [Cpd 35, 2-(1,8-Dioxa-2-aza-spiro[4.5]dec-2-en-3-yl)-6-(2-trifluoromethyl-phenyl)-3H-benzimidazole-4-carbonitrile hydrochloride]
inhibition at 0.2 µM: 100%
IC50: 5.2 nM

CC1(C)CCC2(CC1)CC(c1nc3cc(-c4ccccc4C(F)(F)F)ccc3[nH]1)=NO2 [Cpd 36, 8,8-Dimethyl-3-[5-(2-trifluoromethyl-phenyl)-1H-benzimidazol-2-yl]-1-oxa-2-aza-spiro[4.5]dec-2-ene hydrochloride]
inhibition at 0.2 µM: 99%
IC50: 12.5 nM

CC1(C)CCC2(CC1)CC(c1nc3cc(-c4ccccc4Cl)ccc3[nH]1)=NO2 [Cpd 37, 3-[5-(Chloro-phenyl)-1H-benzimidazol-2-yl]-8,8-dimethyl-1-oxa-2-aza-spiro[4.5]dec-2-ene hydrochloride]
inhibition at 0.2 µM: 99%
IC50: 5.2 nM

Fc1cccc(F)c1-c1ccc2[nH]c(C3=NOC4(CCOCC4)C3)nc2c1 [Cpd 38, 3-[5-(2,6-Difluoro-phenyl)-1H-benzimidazol-2-yl]-1,8-dioxa-2-aza-spiro[4.5]dec-2-ene hydrochloride]
inhibition at 0.2 µM: 99%
IC50: 8.3 nM

CC1(C)CCC2(CC1)CC(c1nc3cc(-c4ccccc4C(F)(F)F)cc(C(F)(F)F)c3[nH]1)=NO2 [Cpd 39, 8,8-Dimethyl-3-[7-trifluoromethyl-5-(2-trifluoromethyl-phenyl)-1H-benzimidazol-2-yl]-1-oxa-2-aza-spiro[4.5]dec-2-ene hydrochloride]
inhibition at 0.2 µM: 99%
IC50: 6.3 nM

Clc1ccccc1-c1ccc2[nH]c(C3=NOC4(CCOCC4)C3)nc2c1 [Cpd 40, 3-[5-(2-Chloro-phenyl)-1H-benzimidazol-2-yl]-1,8-dioxa-2-aza-spiro[4.5]dec-2-ene hydrochloride]
inhibition at 0.2 µM: 98%
IC50: 11 nM

CC1(C)CCC2(CC1)CC(c1nc3cc(-c4ccccc4C(F)(F)F)cc(Cl)c3[nH]1)=NO2 [Cpd 41, 3-[7-Chloro-5-(2-trifluoromethyl-phenyl)-1H-benzimidazol-2-yl]-8,8-dimethyl-1-oxa-2-aza-spiro[4.5]dec-2-ene hydrochloride]
inhibition at 0.2 µM: 92%
IC50: 50.2 nM

CC(C)(O)CCc1cc(-c2ccccc2C(F)(F)F)cc2nc(C3=NOC4(CCCCC4)C3)[nH]c12 [Cpd 43, 2-Methyl-4-[2-(1-oxa-2-aza-spiro[4.5]dec-2-en-3-yl)-6-(2-trifluoromethylphenyl)-3H-benzimidazol-4-yl]-butan-2-ol]
inhibition at 0.2 µM: 99%
IC50: 1.7 nM

Fc1cccc(F)c1-c1cc(Cl)c2[nH]c(C3=NOC4(CCCCC4)C3)nc2c1 [Cpd 44, 3-[7-Chloro-5-(2,6-difluorophenyl)-1H-benzimidazol-2-yl]-1-oxa-2-aza-spiro[4.5]dec-2-ene methanesulfonate]
inhibition at 0.2 µM: 100%
IC50: 2.1 nM

Clc1ccccc1-c1ccc2[nH]c(C3=NOC4(CCCCC4)C3)nc2c1 [Cpd 45, 3-[5-(2-Chlorophenyl)-1H-benzimidazol-2-yl]-1-oxa-2-aza-spiro[4.5]dec-2-ene hydrochloride]
inhibition at 0.2 µM: 97%

Cc1cc(-c2ccccc2C(F)(F)F)cc2nc(C3=NOC4(CCCCC4)C3)[nH]c12 [Cpd 46, 3-[7-Methyl-5-(2-trifluoromethylphenyl)-1H-benzimidazol-2-yl]-1-oxa-2-aza-spiro[4.5]dec-2-ene hydrochloride]
inhibition at 0.2 µM: 97%
IC50: 1.8 nM

Cc1cc(-c2ccccc2F)cc2nc(C3=NOC4(CCCCC4)C3)[nH]c12 [Cpd 47, 3-[7-Methyl-5-(2-fluorophenyl)-1H-benzimidazol-2-yl]-1-oxa-2-aza-spiro[4.5]dec-2-ene hydrochloride]
inhibition at 0.2 µM: 97%
IC50: 6.9 nM

Cc1cc(-c2c(F)cccc2F)cc2nc(C3=NOC4(CCCCC4)C3)[nH]c12 [Cpd 48, 3-[7-Methyl-5-(2,6-difluorophenyl)-1H-benzimidazol-2-yl]-1-oxa-2-aza-spiro[4.5]dec-2-ene hydrochloride]
inhibition at 0.2 µM: 97%
IC50: 3.9 nM

Fc1ccccc1-c1cc(Cl)c2[nH]c(C3=NOC4(CCCCC4)C3)nc2c1 [Cpd 49, 3-[7-Chloro-5-(2-fluorophenyl)-1H-benzimidazol-2-yl]-1-oxa-2-aza-spiro[4.5]dec-2-ene methanesulfonate]
inhibition at 0.2 µM: 101%
IC50: 6.1 nM

FC(F)(F)Oc1ccccc1-c1cc(Cl)c2[nH]c(C3=NOC4(CCCCC4)C3)nc2c1 [Cpd 50, 3-[7-Chloro-5-(2-trifluoromethoxyphenyl)-1H-benzimidazol-2-yl]-1-oxa-2-aza-spiro[4.5]dec-2-ene methanesulfonate]
inhibition at 0.2 µM: 101%
IC50: 1.9 nM

COCCCc1cc(-c2ccccc2C(F)(F)F)cc2nc(C3=NOC4(CCCCC4)C3)[nH]c12 [Cpd 52, 3-[7-(3-Methoxy-propyl)-5-(2-trifluoromethylphenyl)-1H-benzimidazol-2-yl]-1-oxa-2-aza-spiro[4.5]dec-2-ene hydrochloride]
inhibition at 0.2 µM: 97%
IC50: 1 nM
